Columns and labels:
[1] = tested on: (−)TgUPRT HEK cells; test: Background incorporation of uracil analogs into RNA, streptavidin-HRP dot blot; format: cell-based; conditions: for incorporation into RNA at higher concentration: 1 mM, mimics in vivo applications, FIG. 4
Experimental: (§1) Transfection, labeling of cellular RNA and RNA isolation: After 48h seeding, HEK293 cells were transfected with 2.5 μg of TgUPRT WT or mutant plasmids (pKN-CMV-TgUPRT-WT or -Mutt to Mut17) per 5 cm plate using JetPrime Transfection reagent (Polyplus Transfection, France). At 40h post-transfection, cells were incubated with a final concentration of 200 μM at <1% DMSO from 400 mM stock of uracil analogs (5EU, 5VU, 5AU) or 200 mM SAMU stock for 5 h. For time course study, HEK cells were treated with 200 μM uracil analogs for 0 h, 0.5, 1, 3, 5, 12 and 24 hours. For titrating uracil analog concentration experiments, HEK cells were treated with 0 (DMSO), 50, 100, 200, 500 μM or 1 mM uracil analog for 5h. Treated HEK cells were subjected to total RNA extraction using 1 mL Trizol Reagent (Invitrogen) following the manufacturer instructions.
(§2) Biotinylation via CuAAC and IEDDA: Cu-mediated Azide-Alkyne cycloaddition (CuAAC) click reactions were performed in 50 μL reaction at 22° C. on a shaker for 30 min with click reaction cocktail containing 15 μg of total RNA, 1 mM biotin alkyne or biotin azide, fresh 4.6 mM THPTA to a final concentration of 1 mM, and fresh 10.6 mM sodium ascorbate (NaAsc) at final concentration of 1.77 mM, and 12 mM CuSO4 at final concentration of 200 μM in biotinylation reaction buffer (10 mM TrisHCI, 1 mM EDTA, pH7.4). The biotinylated RNA was purified using RNA clean & Concentrator-5 kit (Zymo Research, Cat #R1013) according to the manufacturer instructions and eluted in 21 μL of nuclease free water.
(§3) Inverse electron demand [4+2] Diels-Alder cycloaddition (IEDDA) click reactions were performed in 50 μL at 37° C. or 22° C. (RT) for 3h on mixer at 500 rpm containing 10-15 μg of total RNA, 1 mM final concentration of biotin-benzyl tetrazine (Sigma Aldrich, Cat #793329-5MG) in nuclease free water. Clicked total RNA was purified using RNA clean & Concentrator-5 kit (Zymo Research, Cat #R1013) according to the manufacturer instructions, and RNA was eluted in 21 μL of nuclease free water.
HRP-streptavidin dot blot analysis: All gel reagents were from Bio-Rad. For dot blot analysis, 2 μg of clicked total RNA was applied onto Hybond-N+ membrane (GE Healthcare) as individual dots and UV-crosslinked (254 nm) to a membrane (Stratalinker UV crosslinker). Membranes were blocked in blocking buffer (0.12 M NaCl, 0.016 M Na2HPO4, 0.008 M NaH2PO4, 0.17 M SDS) and followed by incubation with high sensitivity streptavidin-HRP (Fisher Scientific, Cat #: P121130) at 1:5000 dilution in blocking buffer for 5 minutes. The membrane was washed twice in a Wash A buffer (1:10 dilution of blocking buffer) and twice in Wash B buffer (Tris-saline buffer). […]

[2] = molecular target: T1, wild-type (WT) TgUPRT in HEK cells (Toxoplasma gondii, UniProt Q26998); test: In-cell RNA incorporation by wild-type TgUPRT, streptavidin dot blot; format: cell-based
T1 construct: 6xHis; expressed in transfected cells; host or cells: HEK293 (HEK293T)
Experimental: as §1, §2, §3
HRP-streptavidin dot blot analysis: All gel reagents were from Bio-Rad. […]

T1 sequence (Q26998 whole entry): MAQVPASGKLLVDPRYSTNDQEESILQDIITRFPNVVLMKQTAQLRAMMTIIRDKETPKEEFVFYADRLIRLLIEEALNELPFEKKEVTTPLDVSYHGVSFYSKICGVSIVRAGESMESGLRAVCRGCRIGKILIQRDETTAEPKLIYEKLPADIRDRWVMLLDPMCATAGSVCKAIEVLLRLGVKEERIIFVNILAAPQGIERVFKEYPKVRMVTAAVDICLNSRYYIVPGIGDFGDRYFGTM

Structure (SMILES) | incorporation into RNA at higher concentration [1] | background incorporation into RNA ([1]; (−)TgUPRT HEK cells, FIGS. 3A, 3B) | TgUPRT-dependent incorporation into cellular RNA ([2]; wild-type TgUPRT active site) | analog incorporation over time with wild-type TgUPRT ([2]; 200 μM, long periods of incubation, FIG. 9B)
C#Cc1c[nH]c(=O)[nH]c1=O [compound 1, 5-ethynylpyrimidine-2,4(1H,3H)-dione] | very robust incorporation | low level of background incorporation | capable of such transformations | 
C=Cc1c[nH]c(=O)[nH]c1=O [compound 2, 5-Vinylpyrimidine-2,4(1H,3H)-dione] | not observed |  |  | did not result in any observed incorporation

Reference: US20240117431A1, “STEM-CELL BASED BIOMARKER DISCOVERY” (THE REGENTS OF THE UNIVERSITY OF CALIFORNIA, priority 2020, published 2024)
